4 compounds from patent publication US8207108B2, “Stabilizing composition” (DSM IP Assets B.V., priority 2005, dated 2012) can be followed below.

Assay type in all cases: physicochemical
Data set [1] in a line: Solubility of stabilizer in water/ethanol mixture as found in perfumes (appearance). To be noted: 0.1 wt. % stabilizer in water/ethanol (96%) 53.9/46 wt. %. The text has this: An often occurring problem in the stabilization of colorants, dyes, fragrances and active ingredients is the solubility respectively the crystallization of the stabilizer/stabilizing composition in the final product form.

Data set [2] can be described thus: Color stabilization in blue liquid soap, irradiated with 100 MED, visual PANTONE color. As to conditions: irradiated 100 MED. As to the method:
(§1) Basic formulation of the liquid soap:
(§2) The liquid soaps containing different colorants were irradiated with 100 MED and the color was determined visually according to Tints; PANTONE Color Tint Selector, The PANTONE Library of Color.
Blue liquid soap colored with FD&C Blue 1 W 092 (CI 42090)

A short description of data set [3]: Color stabilization in violet liquid soap, irradiated with 100 MED, visual PANTONE color. To be noted: irradiated 100 MED. Here is the method:
as §1, §2

Data set [4] is described as follows: Color stabilization in green liquid soap, irradiated with 100 MED, visual PANTONE color. As to conditions: irradiated 100 MED. As to the method: as §1, §2
Green liquid soap colored with 0.9 ppm Green vent W 7003 (CI 61570)

Where [5] appears, read: 0.1 wt. % stabilizer, blank non irradiated 70% Tint.

Take `O=C(c1ccc(O)cc1O)c1ccc(O)cc1O` [Benzophenon-2]: the Appearance entry in data set [1] was “Precipitate”.
For `COc1ccc(C(=O)c2ccccc2)c(O)c1` [Benzophenon-3], in data set [1], the Appearance result was “Turbid”.
As to `O=C(c1ccccc1)c1ccc(O)cc1O` [Benzophenone-1, benzophenone-1], the “Index (PANTONE tint)” value in data set [2] (0.1 wt. % stabilizer, blank non irradiated 50% Tint) was 50% Tint; in data set [3] (setting [5]), 30% Tint. In addition, the “Color (PANTONE)” value in data set [2] (FD&C Blue 1 W 092, 0.1 wt. % stabilizer, blank non irradiated Pantone 3125C) is listed as “Pantone 3125C”; in data set [3] (3.1 ppm Vert Turquise W 7003 and 0.5 ppm FD&C Red 40WO93, 0.1 wt. % stabilizer, blank non irradiated Pantone 494C), “Pantone 495C”.
Consider `COc1cc(O)c(C(=O)c2ccccc2)cc1S(=O)(=O)O` [Benzophenone-4, benzophenone-4], for which, in data set [4] (setting [5]), the “Index (PANTONE tint)” value is given as 70% Tint. The “Color (PANTONE)” value in data set [4] (0.9 ppm Green vent W 7003, 0.1 wt. % stabilizer, blank non irradiated Pantone 367C) is given as “Pantone 367C”.
